# Results reported in ChEMBL document CHEMBL1201862, “PubChem BioAssay data set” (2004).
# Calls of active or inactive are those of the source.
# Columns and labels:
# [1] = Vero cell cytotoxicity, dose response, cytotoxicity control for Vif-APOBEC3G degradation inhibitor project, Vero cells (AID 1117358); assay type: functional; conditions: Human immunodeficiency virus 1, Vero
# [2] = Luminescence Cell-Based Dose Response HTS to Identify Inhibitors of 5'UTR Stem-Loop Driven Prion Protein mRNA Translation in H4 Neuroglioblastoma Cells. [Related pubchem assays: 1827 (Project Summary), 1813 (Primary HTS)]; assay type: functional
# [3] = inhibitors of firefly luciferase expression or activity, dose response, H4 neuroglioma cells, luminescence (AID 1990); assay type: functional, cell-based
# [4] = target: Voltage-dependent T-type calcium channel subunit alpha-1H (Homo sapiens, UniProt O95180); assay type: functional;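 also: channel activity triggered by adding a high calcium stimulation buffer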
# [5] = growth suppression of beta-catenin-knockout colon cells, dose response, cell-based, HCT116, human colon tumor (AID 1045); assay type: functional;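 also: HCT116 colon tumor cells with beta catenin knocked out; cells exposed to compound for 60 hours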
# [6] = inhibitors of SNCA 5'UTR-driven reporter translation, confirmation, H4 neuroglioma cells, luminescence (AID 1988); assay type: functional, cell-based
# [7] = growth suppression of PTEN-null colon cells, dose response, cell-based, HCT116 PTEN knockout (AID 1047); assay type: functional;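 also: HCT116 colon tumor cells with PTEN knocked out; cells exposed to compound for 60 hours before readout; potency for loss of cell viability measured by luminescence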
# [8] = target: Peroxisome proliferator-activated receptor gamma/Nuclear receptor corepressor 2 (Homo sapiens, UniProt P37231+Q9Y618); experiment: Counterscreen for NR2E3 inverse agonists: TR-FRET-based biochemical high throughput dose response assay to identify inverse agonists of the interaction between peroxisome proliferator-activated receptor gamma (PPARg) and nuclear receptor co-repressor 2 (NCOR2).; assay type: functional
# Sequence of Peroxisome proliferator-activated receptor gamma/Nuclear receptor corepressor 2 (P37231 whole entry): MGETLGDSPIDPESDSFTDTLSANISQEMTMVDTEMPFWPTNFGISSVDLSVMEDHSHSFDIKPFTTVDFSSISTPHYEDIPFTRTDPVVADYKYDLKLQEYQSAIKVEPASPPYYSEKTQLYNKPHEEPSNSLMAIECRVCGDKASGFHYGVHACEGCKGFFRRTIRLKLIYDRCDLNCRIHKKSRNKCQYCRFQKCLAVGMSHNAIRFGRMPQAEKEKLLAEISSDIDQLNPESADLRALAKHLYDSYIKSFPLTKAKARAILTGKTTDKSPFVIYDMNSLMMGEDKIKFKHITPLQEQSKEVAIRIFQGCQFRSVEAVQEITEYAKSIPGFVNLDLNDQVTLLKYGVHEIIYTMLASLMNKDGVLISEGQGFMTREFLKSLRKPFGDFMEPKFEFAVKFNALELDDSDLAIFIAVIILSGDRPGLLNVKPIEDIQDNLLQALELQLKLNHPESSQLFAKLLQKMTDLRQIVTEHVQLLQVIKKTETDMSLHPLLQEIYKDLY
# Sequence of Peroxisome proliferator-activated receptor gamma/Nuclear receptor corepressor 2 (Q9Y618 whole entry): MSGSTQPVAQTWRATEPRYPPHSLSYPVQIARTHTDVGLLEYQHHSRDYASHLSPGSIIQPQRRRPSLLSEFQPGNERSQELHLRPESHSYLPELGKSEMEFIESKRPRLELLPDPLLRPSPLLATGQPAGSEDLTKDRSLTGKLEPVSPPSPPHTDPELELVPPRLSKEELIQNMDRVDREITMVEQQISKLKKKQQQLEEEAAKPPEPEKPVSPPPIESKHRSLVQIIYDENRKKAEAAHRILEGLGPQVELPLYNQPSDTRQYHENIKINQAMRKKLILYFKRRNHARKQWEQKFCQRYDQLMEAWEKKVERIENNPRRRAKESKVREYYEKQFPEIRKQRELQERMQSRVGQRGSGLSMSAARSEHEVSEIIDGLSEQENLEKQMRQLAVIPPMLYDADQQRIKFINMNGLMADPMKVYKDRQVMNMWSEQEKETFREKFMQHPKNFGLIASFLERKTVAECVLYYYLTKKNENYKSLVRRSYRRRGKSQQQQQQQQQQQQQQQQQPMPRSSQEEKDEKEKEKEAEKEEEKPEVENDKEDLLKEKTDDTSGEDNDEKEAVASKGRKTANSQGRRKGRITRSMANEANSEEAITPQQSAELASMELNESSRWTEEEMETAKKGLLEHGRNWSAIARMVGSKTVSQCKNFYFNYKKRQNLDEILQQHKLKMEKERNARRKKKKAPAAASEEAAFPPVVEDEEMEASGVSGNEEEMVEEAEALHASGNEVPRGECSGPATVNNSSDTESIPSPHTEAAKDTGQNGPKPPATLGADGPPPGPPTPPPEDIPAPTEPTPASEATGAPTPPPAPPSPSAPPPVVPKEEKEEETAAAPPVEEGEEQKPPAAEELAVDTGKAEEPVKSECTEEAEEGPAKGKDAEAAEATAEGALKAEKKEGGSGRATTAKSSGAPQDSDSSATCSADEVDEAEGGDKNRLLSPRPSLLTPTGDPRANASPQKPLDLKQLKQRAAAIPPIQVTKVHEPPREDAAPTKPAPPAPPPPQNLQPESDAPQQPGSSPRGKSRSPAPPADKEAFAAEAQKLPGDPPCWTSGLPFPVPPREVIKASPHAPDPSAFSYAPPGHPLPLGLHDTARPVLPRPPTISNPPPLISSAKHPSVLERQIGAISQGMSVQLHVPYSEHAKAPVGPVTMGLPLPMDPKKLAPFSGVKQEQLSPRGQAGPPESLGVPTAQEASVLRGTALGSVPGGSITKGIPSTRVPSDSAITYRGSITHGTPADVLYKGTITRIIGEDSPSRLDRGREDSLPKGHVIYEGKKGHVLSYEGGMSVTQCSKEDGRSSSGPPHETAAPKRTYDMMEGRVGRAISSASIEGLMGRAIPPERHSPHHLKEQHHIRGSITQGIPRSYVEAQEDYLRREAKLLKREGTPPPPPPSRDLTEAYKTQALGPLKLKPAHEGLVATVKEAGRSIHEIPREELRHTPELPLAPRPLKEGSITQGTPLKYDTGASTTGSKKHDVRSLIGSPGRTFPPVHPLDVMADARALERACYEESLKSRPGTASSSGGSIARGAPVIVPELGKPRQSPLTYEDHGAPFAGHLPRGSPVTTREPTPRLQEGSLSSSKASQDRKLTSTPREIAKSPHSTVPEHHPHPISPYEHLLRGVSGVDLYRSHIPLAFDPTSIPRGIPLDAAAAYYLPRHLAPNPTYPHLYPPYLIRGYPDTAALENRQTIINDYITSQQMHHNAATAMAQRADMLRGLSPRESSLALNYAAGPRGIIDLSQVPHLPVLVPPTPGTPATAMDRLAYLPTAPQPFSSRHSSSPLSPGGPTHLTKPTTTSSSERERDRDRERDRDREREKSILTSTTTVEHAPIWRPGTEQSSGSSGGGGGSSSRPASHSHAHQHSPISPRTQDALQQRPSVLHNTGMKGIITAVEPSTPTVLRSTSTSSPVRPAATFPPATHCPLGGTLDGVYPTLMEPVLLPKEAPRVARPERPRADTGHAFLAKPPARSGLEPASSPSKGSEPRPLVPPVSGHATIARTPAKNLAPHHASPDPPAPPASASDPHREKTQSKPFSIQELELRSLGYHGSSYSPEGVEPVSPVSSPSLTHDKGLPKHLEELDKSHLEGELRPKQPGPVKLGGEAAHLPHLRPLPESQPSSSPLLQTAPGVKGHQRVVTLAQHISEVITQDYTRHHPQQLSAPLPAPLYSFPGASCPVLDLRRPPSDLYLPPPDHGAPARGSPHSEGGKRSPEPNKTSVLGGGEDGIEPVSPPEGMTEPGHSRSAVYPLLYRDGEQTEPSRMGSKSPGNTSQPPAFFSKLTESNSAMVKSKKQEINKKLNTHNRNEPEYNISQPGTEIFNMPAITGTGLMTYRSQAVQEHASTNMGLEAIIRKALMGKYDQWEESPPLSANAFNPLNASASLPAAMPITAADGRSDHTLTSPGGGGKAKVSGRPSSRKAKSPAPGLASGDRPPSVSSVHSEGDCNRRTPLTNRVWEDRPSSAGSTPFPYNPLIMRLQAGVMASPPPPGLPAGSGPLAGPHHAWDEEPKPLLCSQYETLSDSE
# [9] = target: Photoreceptor-specific nuclear receptor (Homo sapiens, UniProt Q9Y5X4); experiment: NR2E3 inverse agonists, dose response, biochemical, TR-FRET (AID 463256); assay type: functional
# Sequence of Photoreceptor-specific nuclear receptor (Q9Y5X4 whole entry): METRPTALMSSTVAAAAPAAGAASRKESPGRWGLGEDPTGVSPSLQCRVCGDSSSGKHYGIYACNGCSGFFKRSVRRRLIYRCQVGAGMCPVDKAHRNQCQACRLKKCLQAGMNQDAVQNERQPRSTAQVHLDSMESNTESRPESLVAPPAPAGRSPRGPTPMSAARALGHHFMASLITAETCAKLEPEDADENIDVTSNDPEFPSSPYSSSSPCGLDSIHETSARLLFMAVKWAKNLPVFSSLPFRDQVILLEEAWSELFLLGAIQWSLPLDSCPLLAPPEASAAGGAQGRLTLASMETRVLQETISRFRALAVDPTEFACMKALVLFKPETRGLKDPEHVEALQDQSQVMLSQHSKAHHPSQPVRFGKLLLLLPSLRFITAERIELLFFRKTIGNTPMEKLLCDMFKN
# [10] = target: T1, Zinc finger protein mex-5 (Caenorhabditis elegans, UniProt Q9XUB2); experiment: MEX-5/TCR-2 RNA interaction inhibitors, dose response, biochemical, C. elegans, fluorescence polarization (AID 1960)
# T1 sequence (Q9XUB2 whole entry): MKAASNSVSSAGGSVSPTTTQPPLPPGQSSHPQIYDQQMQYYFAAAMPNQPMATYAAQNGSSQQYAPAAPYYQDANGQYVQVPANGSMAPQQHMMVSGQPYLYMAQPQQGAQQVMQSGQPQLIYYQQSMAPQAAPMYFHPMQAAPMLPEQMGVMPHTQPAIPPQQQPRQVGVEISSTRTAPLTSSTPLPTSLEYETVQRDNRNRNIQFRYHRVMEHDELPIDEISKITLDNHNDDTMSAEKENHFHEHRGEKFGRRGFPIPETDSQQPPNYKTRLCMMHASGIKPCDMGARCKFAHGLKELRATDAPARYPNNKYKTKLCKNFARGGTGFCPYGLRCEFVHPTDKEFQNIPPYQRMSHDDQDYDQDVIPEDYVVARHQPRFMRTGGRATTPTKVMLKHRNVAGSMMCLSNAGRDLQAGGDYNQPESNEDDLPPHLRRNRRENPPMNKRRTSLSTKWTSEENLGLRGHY
# [11] = target: Long-chain-fatty-acid--AMP ligase FadD28 (Mycobacterium tuberculosis, UniProt P9WQ59); experiment: Fluorescence polarization aasay to screen for inhibitors that compete for the binding of FadD28 to a bisubstrate Measured in Biochemical System Using Plate Reader - 2147-01_Inhibitor_Dose_CherryPick_Activity.; assay type: functional, Mycobacterium tuberculosis H37Rv
# Sequence of Long-chain-fatty-acid--AMP ligase FadD28 (P9WQ59 whole entry): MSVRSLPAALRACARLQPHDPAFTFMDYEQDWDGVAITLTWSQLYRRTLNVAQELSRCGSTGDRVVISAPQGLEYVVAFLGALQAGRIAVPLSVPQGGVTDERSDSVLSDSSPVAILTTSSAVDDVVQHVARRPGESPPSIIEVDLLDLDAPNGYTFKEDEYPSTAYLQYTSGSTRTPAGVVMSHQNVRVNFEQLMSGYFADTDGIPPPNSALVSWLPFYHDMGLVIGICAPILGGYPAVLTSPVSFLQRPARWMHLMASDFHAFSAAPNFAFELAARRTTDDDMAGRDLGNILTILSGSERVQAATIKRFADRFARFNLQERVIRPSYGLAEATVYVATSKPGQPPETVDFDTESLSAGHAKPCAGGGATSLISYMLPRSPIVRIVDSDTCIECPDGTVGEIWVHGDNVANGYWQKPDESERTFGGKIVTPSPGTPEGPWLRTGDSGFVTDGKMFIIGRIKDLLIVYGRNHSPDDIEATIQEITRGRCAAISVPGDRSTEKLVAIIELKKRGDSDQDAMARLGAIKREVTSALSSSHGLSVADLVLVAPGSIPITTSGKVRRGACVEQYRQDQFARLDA
# [12] = target: Bifunctional protein GlmU (Mycobacterium tuberculosis, UniProt P9WMN3); experiment: Inhibitors of Mycobacterial Glucosamine-1-phosphate acetyl transferase (GlmU). Secondary screen.; parameters: species or system Mycobacterium tuberculosis H37Rv
# Sequence of Bifunctional protein GlmU (P9WMN3 whole entry): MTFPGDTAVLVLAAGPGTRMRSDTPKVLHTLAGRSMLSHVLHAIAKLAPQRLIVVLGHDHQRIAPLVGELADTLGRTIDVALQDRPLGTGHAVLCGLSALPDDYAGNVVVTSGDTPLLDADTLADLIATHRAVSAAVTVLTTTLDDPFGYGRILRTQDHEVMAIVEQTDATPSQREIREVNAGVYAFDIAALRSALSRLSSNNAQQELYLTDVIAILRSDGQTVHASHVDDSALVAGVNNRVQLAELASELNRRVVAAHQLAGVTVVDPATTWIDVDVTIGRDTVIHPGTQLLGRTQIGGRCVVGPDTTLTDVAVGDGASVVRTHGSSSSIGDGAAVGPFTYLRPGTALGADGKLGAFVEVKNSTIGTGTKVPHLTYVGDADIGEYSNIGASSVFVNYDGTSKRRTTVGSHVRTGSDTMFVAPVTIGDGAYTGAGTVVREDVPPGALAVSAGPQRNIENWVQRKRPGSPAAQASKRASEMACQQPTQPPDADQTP
# [13] = target: DNA (cytosine-5)-methyltransferase 1 (Homo sapiens, UniProt P26358); experiment: DNMT1 methyltransferase inhibitors, confirmation, biochemical, fluorescent molecular beacon (AID 602386); assay type: functional
# [14] = target: T2, RNA-binding protein pos-1 (Caenorhabditis elegans, UniProt G5EF15); experiment: inhibitors of POS-1/mex-3 RNA binding, dose response, biochemical, fluorescence polarization (AID 1964);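 also: purified POS-1 fused to maltose binding protein made in E. coli; potency of compounds blocking POS-1 binding to fluorescent RNA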
# T2 sequence (G5EF15 whole entry): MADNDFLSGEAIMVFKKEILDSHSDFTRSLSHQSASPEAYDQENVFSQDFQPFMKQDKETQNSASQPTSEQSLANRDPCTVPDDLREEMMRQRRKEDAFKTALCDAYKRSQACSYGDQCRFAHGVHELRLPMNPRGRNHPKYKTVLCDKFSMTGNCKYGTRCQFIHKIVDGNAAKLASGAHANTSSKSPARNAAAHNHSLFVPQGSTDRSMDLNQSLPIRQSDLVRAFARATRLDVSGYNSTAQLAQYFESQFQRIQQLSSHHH
# Large T antigen = Large T antigen (Simian virus 40, UniProt P03070); assay type: functional, Betapolyomavirus macacae;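 also: Confirmatory-stage PubChem screen for compounds that inhibit SV40 T antigen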
# [15] = target: T3, Carboxy-terminal domain RNA polymerase II polypeptide A small phosphatase 1 (Homo sapiens, UniProt Q9GZU7); experiment: inhibitors of CTDSP1, concentration-response testing, biochemical assay, absorbance-based, actives from ultra-high-throughput screening (AID 540297); assay type: functional
# T3 sequence (Q9GZU7 whole entry): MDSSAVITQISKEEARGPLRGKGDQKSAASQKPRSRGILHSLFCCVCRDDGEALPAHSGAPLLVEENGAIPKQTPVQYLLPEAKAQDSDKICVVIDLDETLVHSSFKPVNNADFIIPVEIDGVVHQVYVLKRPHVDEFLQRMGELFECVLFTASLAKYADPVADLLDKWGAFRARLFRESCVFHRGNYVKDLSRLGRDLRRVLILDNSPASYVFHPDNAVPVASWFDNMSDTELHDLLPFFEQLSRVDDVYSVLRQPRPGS
structure (smiles),measurement,setting,value
CCN(Cc1ccccc1)S(=O)(=O)c1ccc(C(=O)Nc2nnc(C3CC3)o2)cc1,CC50,[1],20.2 µM (active)
same,EC50,[2],12.6 µM (active)
same,EC50,[3],> 120 µM (not active)
same,EC50,[4],13.7 µM (active)
same,EC50,[5],8.9 µM (active)
same,EC50,[6],25.3 µM (active)
same,EC50,[7],9.37 µM (active)
NC(=O)c1ccc(NC(=O)CNC(=O)c2sc3ccccc3c2Cl)cc1,IC50,[8],2.8 µM (active)
same,IC50,[9],4.85 µM (active)
Cc1ccc(NC(=O)CN2C(=O)N/C(=C\c3cccn3-c3cccc(C(=O)O)c3)C2=O)cc1,EC50,[10],54 µM (active)
same,AC50,[11],28 µM (active)
same,IC50,[12],103 µM (active)
same,IC50,[13],6.05 µM (active)
same,EC50,[14],> 300 µM (not active)
same,IC50,Large T antigen,> 100 µM (active)
same,IC50,[15],2.2 µM (active)
